According to the NIST ThermoML archive (doi:10.1016/j.fluid.2015.07.030):

Test: refractive index (other wavelength) (dimensionless); xn = mol fraction of the nth substance listed
Conditions: 95.99 kPa, Liquid, Standard Abbe refractometry

OCCOCCOCCO [triethylene glycol] + O
refractive index
Conditions | Wavelength=404.7 nm | Wavelength=435.8 nm | Wavelength=486.1 nm | Wavelength=546.1 nm | Wavelength=587.6 nm | Wavelength=589.3 nm | Wavelength=632.8 nm | Wavelength=644 nm | Wavelength=706.5 nm
293.15 K, x2 = 0 | 1.46928 | 1.46569 | 1.46151 | 1.45803 | 1.45619 | 1.45612 | 1.45455 | 1.4542 | 1.45248
293.15 K, x2 = 0.1056 | 1.46776 | 1.46418 | 1.46003 | 1.45656 | 1.45474 | 1.45467 | 1.45311 | 1.45275 | 1.45102
293.15 K, x2 = 0.2069 | 1.46585 | 1.46229 | 1.45817 | 1.45473 | 1.45293 | 1.45286 | 1.45131 | 1.45095 | 1.44922
293.15 K, x2 = 0.3104 | 1.46244 | 1.45892 | 1.45478 | 1.45137 | 1.44957 | 1.4495 | 1.44796 | 1.4476 | 1.44588
293.15 K, x2 = 0.4844 | 1.45861 | 1.45514 | 1.45102 | 1.44764 | 1.44586 | 1.4458 | 1.44426 | 1.44391 | 1.44221
293.15 K, x2 = 0.5016 | 1.45756 | 1.45412 | 1.45 | 1.44663 | 1.44485 | 1.44479 | 1.44326 | 1.44291 | 1.44121
293.15 K, x2 = 0.5952 | 1.45069 | 1.44731 | 1.44328 | 1.43997 | 1.4382 | 1.43814 | 1.43663 | 1.43669 | 1.4346
293.15 K, x2 = 0.6016 | 1.45072 | 1.44734 | 1.44332 | 1.44002 | 1.43827 | 1.43821 | 1.4367 | 1.43635 | 1.43464
293.15 K, x2 = 0.6788 | 1.44395 | 1.4406 | 1.4367 | 1.43344 | 1.43171 | 1.43165 | 1.4301 | 1.42981 | 1.42813
293.15 K, x2 = 0.7835 | 1.4342 | 1.43091 | 1.42716 | 1.42397 | 1.4223 | 1.42224 | 1.42078 | 1.42043 | 1.41874
293.15 K, x2 = 0.8184 | 1.42884 | 1.42558 | 1.42185 | 1.41872 | 1.41706 | 1.417 | 1.41555 | 1.4152 | 1.41353
293.15 K, x2 = 0.8473 | 1.42267 | 1.41949 | 1.41582 | 1.41276 | 1.41114 | 1.41108 | 1.40964 | 1.4093 | 1.40762
293.15 K, x2 = 0.8719 | 1.41529 | 1.41214 | 1.40852 | 1.40547 | 1.40386 | 1.4038 | 1.40238 | 1.40204 | 1.40038
293.15 K, x2 = 0.8926 | 1.40703 | 1.40391 | 1.40033 | 1.39734 | 1.39576 | 1.3957 | 1.3943 | 1.39396 | 1.39232
293.15 K, x2 = 0.9106 | 1.40148 | 1.39844 | 1.39495 | 1.392 | 1.39044 | 1.39038 | 1.38899 | 1.38865 | 1.387
293.15 K, x2 = 0.9254 | 1.39081 | 1.38783 | 1.38446 | 1.38156 | 1.38004 | 1.37998 | 1.3786 | 1.37827 | 1.37665
293.15 K, x2 = 0.9303 | 1.39206 | 1.38905 | 1.38562 | 1.38273 | 1.3812 | 1.38114 | 1.37976 | 1.37942 | 1.37778
293.15 K, x2 = 0.9391 | 1.38808 | 1.38514 | 1.38176 | 1.37891 | 1.37736 | 1.37731 | 1.37592 | 1.37559 | 1.37396
293.15 K, x2 = 0.951 | 1.38101 | 1.37811 | 1.37479 | 1.37198 | 1.37045 | 1.37039 | 1.36903 | 1.36871 | 1.36871
293.15 K, x2 = 0.9599 | 1.37477 | 1.37194 | 1.36866 | 1.36589 | 1.36436 | 1.36431 | 1.36296 | 1.36264 | 1.36106
293.15 K, x2 = 0.9708 | 1.36673 | 1.36396 | 1.36077 | 1.35803 | 1.35657 | 1.35652 | 1.3552 | 1.35488 | 1.35328
293.15 K, x2 = 0.979 | 1.36151 | 1.35879 | 1.35566 | 1.35294 | 1.35147 | 1.35142 | 1.35011 | 1.3498 | 1.34824
293.15 K, x2 = 0.9867 | 1.35527 | 1.35259 | 1.34949 | 1.34676 | 1.34532 | 1.34526 | 1.34398 | 1.34367 | 1.3421
293.15 K, x2 = 0.9936 | 1.34883 | 1.34624 | 1.34314 | 1.34052 | 1.33907 | 1.33902 | 1.33774 | 1.33744 | 1.33593
298.15 K, x2 = 0 | 1.46749 | 1.4639 | 1.45975 | – | – | – | – | – | –
298.15 K, x2 = 0.1056 | 1.46604 | 1.46248 | 1.45834 | – | – | – | – | – | –
298.15 K, x2 = 0.2069 | 1.46428 | 1.46074 | 1.45661 | – | – | – | – | – | –
298.15 K, x2 = 0.3104 | 1.46096 | 1.45745 | 1.45333 | – | – | – | – | – | –
298.15 K, x2 = 0.4844 | 1.45699 | 1.45354 | 1.44943 | – | – | – | – | – | –
298.15 K, x2 = 0.5016 | 1.45596 | 1.45252 | – | – | – | – | – | – | –
298.15 K, x2 = 0.5952 | 1.44911 | 1.44572 | – | – | – | – | – | – | –
298.15 K, x2 = 0.6016 | 1.44913 | 1.44575 | – | – | – | – | – | – | –
298.15 K, x2 = 0.6788 | 1.44244 | 1.43909 | – | – | – | – | – | – | –
298.15 K, x2 = 0.7835 | 1.43274 | 1.42946 | – | – | – | – | – | – | –
298.15 K, x2 = 0.8184 | 1.42742 | 1.42417 | – | – | – | – | – | – | –
298.15 K, x2 = 0.8473 | 1.42101 | 1.41783 | – | – | – | – | – | – | –
298.15 K, x2 = 0.8719 | 1.41326 | 1.41082 | – | – | – | – | – | – | –
298.15 K, x2 = 0.8926 | 1.40601 | 1.40293 | – | – | – | – | – | – | –
298.15 K, x2 = 0.9106 | 1.40032 | 1.39727 | – | – | – | – | – | – | –
298.15 K, x2 = 0.9254 | 1.38959 | 1.38664 | – | – | – | – | – | – | –
298.15 K, x2 = 0.9303 | 1.39111 | 1.38813 | – | – | – | – | – | – | –
298.15 K, x2 = 0.9391 | 1.38696 | 1.38402 | – | – | – | – | – | – | –
298.15 K, x2 = 0.951 | 1.38004 | 1.37716 | – | – | – | – | – | – | –
298.15 K, x2 = 0.9599 | 1.374 | 1.37117 | – | – | – | – | – | – | –
298.15 K, x2 = 0.9708 | 1.36592 | 1.36317 | – | – | – | – | – | – | –
298.15 K, x2 = 0.979 | 1.36072 | 1.35801 | – | – | – | – | – | – | –
298.15 K, x2 = 0.9867 | 1.35466 | 1.35198 | – | – | – | – | – | – | –
298.15 K, x2 = 0.9936 | 1.34824 | 1.34565 | – | – | – | – | – | – | –
